Reference: BindingDB's records for doi:10.1016/s0960-894x(00)00170-0 (Merck Research Laboratories, 2000)

Target: Thrombin (Homo sapiens)
Test: The compound was tested for its ability to inhibit thrombin.

Ki: 240 pM
SMILES: Cc1nc(N)ccc1CNC(=O)Cn1c(C)cc2c(c1=O)NC(=O)[C@](C)(CC(C)C)C2 [N-(6-Amino-2-methyl-pyridin-3-ylmethyl)-2-((R)-3-isobutyl-3,6-dimethyl-2,8-dioxo-2,3,4,8-tetrahydro-1H-[1,7]naphthyridin-7-yl)-acetamide]
